In patent US20230017045A1, “PYRIDINE AND PYRIMIDINE CARBOXYLATE HERBICIDES AND METHODS OF USE THEREOF” (Dow AgroSciences LLC, priority 2017, published 2023):

Test system: test plant species
Assay: Post-emergent herbicidal activity test (greenhouse, foliar spray, visual growth reduction)
Assay type: in vivo
Details: post-emergence, 336 h, ALOMY: blackgrass (Alopecurus myosuroides), 140 g ai/ha, 14 days after application, read-out: Visual Growth Reduction (%) 14 Days After Application, ALOMY
Method: Post-emergent Test: Seeds or nutlets of the desired test plant species were planted in Sun Gro Metro-Mix® 360 planting mixture, which typically has a pH of 6.0 to 6.8 and an organic matter content of about 30 percent, in plastic pots with a surface area of 64 square centimeters. In some aspects, to ensure good germination and healthy plants, a fungicide treatment and/or other chemical or physical treatment was applied. The plants were grown for 7-21 d in a greenhouse with an approximate 15 h photoperiod which was maintained at 23-29° C. during the day and 22-28° C. during the night. Nutrients and water were added on a regular basis and supplemental lighting was provided with overhead metal halide 1000-Watt lamps as necessary. Plants were used for testing when they reached the first or second true leaf stage. A weighed amount, determined by the highest rate to be tested, of each test compound was placed in a 25 mL glass vial and was dissolved in 4 mL of a 97:3 v/v mixture of acetone and DMSO to obtain concentrated stock solutions. […] The concentrated stock solutions obtained were diluted with 20 mL of an aqueous mixture containing acetone, water, isopropyl alcohol, DMSO, […] crop oil concentrate, and X-77 surfactant in a 48.5:39:10:1.5:1.0:0.02 v/v ratio to obtain spray solutions containing the application rate. Compound requirements are based upon a 12 mL application volume at a rate of 187 liters per hectare (L/ha). Formulated compounds were applied to the plant material with an overhead Mandel track sprayer equipped with […] nozzles calibrated to deliver 187 L/ha over an application area of 0.64 square meters at a spray height of 18 inches (43 cm) above the average plant canopy height. Control plants were sprayed in the same manner with the solvent blank. The treated plants and control plants were placed in a greenhouse as described above and watered by subirrigation to prevent wash-off of the test compounds. After 14 d, the condition of the test plants as compared with that of the nontreated and control plants was determined visually and scored on a scale of 0 to 100 percent where 0 corresponds to no injury and 100 corresponds to complete control. In the reporting of the results, Table A: Percent Growth Reduction Conversion Table was used.

`COC(=O)c1nc(-c2ccc(C#N)cc2Cl)c(F)cc1Cl` [F186, Methyl 3-chloro-6-(2-chloro-4-cyanophenyl)-5-fluoropicolinate] and `COC(=O)c1nc(-c2ccc(C(F)(F)F)c([S+](C)[O-])c2Cl)ccc1Cl` (stereo not drawn) [F119, methyl 3-chloro-6-(2-chloro-3-(methylsulfinyl)-4-(trifluoromethyl)phenyl)picolinate] fall in the same range of pest or weed control at 140 g/ha: 0 to 29% for the first, 0 to 29% for the second.

Same assay, conditions: post-emergence, 336 h, AMARE: redroot pigweed (Amaranthus retroflexus), 140 g ai/ha, 14 days after application, read-out: Visual Growth Reduction (%) 14 Days After Application, AMARE

First: COC(=O)c1nc(-c2ccc(C#N)cc2Cl)c(F)cc1Cl [F186, Methyl 3-chloro-6-(2-chloro-4-cyanophenyl)-5-fluoropicolinate]
Second: COC(=O)c1nc(-c2ccc(C(F)(F)F)c([S+](C)[O-])c2Cl)ccc1Cl (stereo not drawn) [F119, methyl 3-chloro-6-(2-chloro-3-(methylsulfinyl)-4-(trifluoromethyl)phenyl)picolinate]
The pest or weed control at 140 g/ha of the first is higher: 75 to 84% for the first, 0 to 29% for the second.

Same assay, conditions: post-emergence, 336 h, AVEFA: wild oat (Avena fatua), 140 g ai/ha, 14 days after application, read-out: Visual Growth Reduction (%) 14 Days After Application, AVEFA

`COC(=O)c1nc(-c2ccc(C#N)cc2Cl)c(F)cc1Cl` [F186, Methyl 3-chloro-6-(2-chloro-4-cyanophenyl)-5-fluoropicolinate] and `COC(=O)c1nc(-c2ccc(C(F)(F)F)c([S+](C)[O-])c2Cl)ccc1Cl` (stereo not drawn) [F119, methyl 3-chloro-6-(2-chloro-3-(methylsulfinyl)-4-(trifluoromethyl)phenyl)picolinate] fall in the same range of pest or weed control at 140 g/ha: 0 to 29% for the first, 0 to 29% for the second.

Same assay, conditions: post-emergence, 336 h, CHEAL: lambsquarters (Chenopodium album), 140 g ai/ha, 14 days after application, read-out: Visual Growth Reduction (%) 14 Days After Application, CHEAL

Compared with `COC(=O)c1nc(-c2ccc(C#N)cc2Cl)c(F)cc1Cl` [F186, Methyl 3-chloro-6-(2-chloro-4-cyanophenyl)-5-fluoropicolinate], `COC(=O)c1nc(-c2ccc(C(F)(F)F)c([S+](C)[O-])c2Cl)ccc1Cl` (stereo not drawn) [F119, methyl 3-chloro-6-(2-chloro-3-(methylsulfinyl)-4-(trifluoromethyl)phenyl)picolinate] is lower in pest or weed control at 140 g/ha: 85 to 94% for the first, 0 to 29% for the second.

Same assay, conditions: post-emergence, 336 h, CIRAR: canada thistle (Cirsium arvense), 140 g ai/ha, 14 days after application, read-out: Visual Growth Reduction (%) 14 Days After Application, CIRAR

First: COC(=O)c1nc(-c2ccc(C#N)cc2Cl)c(F)cc1Cl [F186, Methyl 3-chloro-6-(2-chloro-4-cyanophenyl)-5-fluoropicolinate]
Second: COC(=O)c1nc(-c2ccc(C(F)(F)F)c([S+](C)[O-])c2Cl)ccc1Cl (stereo not drawn) [F119, methyl 3-chloro-6-(2-chloro-3-(methylsulfinyl)-4-(trifluoromethyl)phenyl)picolinate]
The pest or weed control at 140 g/ha of the first is higher: 75 to 84% for the first, 0 to 29% for the second.

Same assay, conditions: post-emergence, 336 h, CYPES: yellow nutsedge (Cyperus esculentus), 140 g ai/ha, 14 days after application, read-out: Visual Growth Reduction (%) 14 Days After Application, CYPES

First: COC(=O)c1nc(-c2ccc(C#N)cc2Cl)c(F)cc1Cl [F186, Methyl 3-chloro-6-(2-chloro-4-cyanophenyl)-5-fluoropicolinate]
Second: COC(=O)c1nc(-c2ccc(C(F)(F)F)c([S+](C)[O-])c2Cl)ccc1Cl (stereo not drawn) [F119, methyl 3-chloro-6-(2-chloro-3-(methylsulfinyl)-4-(trifluoromethyl)phenyl)picolinate]
The pest or weed control at 140 g/ha of the first is higher: 45 to 59% for the first, 0 to 29% for the second.

Same assay, conditions: post-emergence, 336 h, DIGSA: crabgrass (Digitaria sanguinalis), 140 g ai/ha, 14 days after application, read-out: Visual Growth Reduction (%) 14 Days After Application, DIGSA

Compared with `COC(=O)c1nc(-c2ccc(C#N)cc2Cl)c(F)cc1Cl` [F186, Methyl 3-chloro-6-(2-chloro-4-cyanophenyl)-5-fluoropicolinate], `COC(=O)c1nc(-c2ccc(C(F)(F)F)c([S+](C)[O-])c2Cl)ccc1Cl` (stereo not drawn) [F119, methyl 3-chloro-6-(2-chloro-3-(methylsulfinyl)-4-(trifluoromethyl)phenyl)picolinate] is lower in pest or weed control at 140 g/ha: 75 to 84% for the first, 0 to 29% for the second.

Same assay, conditions: post-emergence, 336 h, ECHCG: barnyardgrass (Echinochloa crus-galli), 140 g ai/ha, 14 days after application, read-out: Visual Growth Reduction (%) 14 Days After Application, ECHCG

First: COC(=O)c1nc(-c2ccc(C#N)cc2Cl)c(F)cc1Cl [F186, Methyl 3-chloro-6-(2-chloro-4-cyanophenyl)-5-fluoropicolinate]
Second: COC(=O)c1nc(-c2ccc(C(F)(F)F)c([S+](C)[O-])c2Cl)ccc1Cl (stereo not drawn) [F119, methyl 3-chloro-6-(2-chloro-3-(methylsulfinyl)-4-(trifluoromethyl)phenyl)picolinate]
The pest or weed control at 140 g/ha of the first is higher: 60 to 74% for the first, 0 to 29% for the second.

Same assay, conditions: post-emergence, 336 h, IPOHE: ivy-leaf morning glory (Ipomoea hederacea), 140 g ai/ha, 14 days after application, read-out: Visual Growth Reduction (%) 14 Days After Application, IPOHE

First: COC(=O)c1nc(-c2ccc(C#N)cc2Cl)c(F)cc1Cl [F186, Methyl 3-chloro-6-(2-chloro-4-cyanophenyl)-5-fluoropicolinate]
Second: COC(=O)c1nc(-c2ccc(C(F)(F)F)c([S+](C)[O-])c2Cl)ccc1Cl (stereo not drawn) [F119, methyl 3-chloro-6-(2-chloro-3-(methylsulfinyl)-4-(trifluoromethyl)phenyl)picolinate]
The pest or weed control at 140 g/ha of the first is higher: 95 to 100% for the first, 0 to 29% for the second.

Same assay, conditions: post-emergence, 336 h, KCHSC: kochia (Bassia scoparia), 140 g ai/ha, 14 days after application, read-out: Visual Growth Reduction (%) 14 Days After Application, KCHSC

Compared with `COC(=O)c1nc(-c2ccc(C#N)cc2Cl)c(F)cc1Cl` [F186, Methyl 3-chloro-6-(2-chloro-4-cyanophenyl)-5-fluoropicolinate], `COC(=O)c1nc(-c2ccc(C(F)(F)F)c([S+](C)[O-])c2Cl)ccc1Cl` (stereo not drawn) [F119, methyl 3-chloro-6-(2-chloro-3-(methylsulfinyl)-4-(trifluoromethyl)phenyl)picolinate] is lower in pest or weed control at 140 g/ha: 75 to 84% for the first, 0 to 29% for the second.

Same assay, conditions: post-emergence, 336 h, ORYSA: rice (Oryza sativa), 140 g ai/ha, 14 days after application, read-out: Visual Growth Reduction (%) 14 Days After Application, ORYSA

`COC(=O)c1nc(-c2ccc(C#N)cc2Cl)c(F)cc1Cl` [F186, Methyl 3-chloro-6-(2-chloro-4-cyanophenyl)-5-fluoropicolinate] and `COC(=O)c1nc(-c2ccc(C(F)(F)F)c([S+](C)[O-])c2Cl)ccc1Cl` (stereo not drawn) [F119, methyl 3-chloro-6-(2-chloro-3-(methylsulfinyl)-4-(trifluoromethyl)phenyl)picolinate] fall in the same range of pest or weed control at 140 g/ha: 0 to 29% for the first, 0 to 29% for the second.

Same assay, conditions: post-emergence, 336 h, SETFA: giant foxtail (Setaria faberi), 140 g ai/ha, 14 days after application, read-out: Visual Growth Reduction (%) 14 Days After Application, SETFA

Compared with `COC(=O)c1nc(-c2ccc(C#N)cc2Cl)c(F)cc1Cl` [F186, Methyl 3-chloro-6-(2-chloro-4-cyanophenyl)-5-fluoropicolinate], `COC(=O)c1nc(-c2ccc(C(F)(F)F)c([S+](C)[O-])c2Cl)ccc1Cl` (stereo not drawn) [F119, methyl 3-chloro-6-(2-chloro-3-(methylsulfinyl)-4-(trifluoromethyl)phenyl)picolinate] is lower in pest or weed control at 140 g/ha: 85 to 94% for the first, 0 to 29% for the second.

Same assay, conditions: post-emergence, 336 h, SORVU: grain sorghum (Sorghum vulgare), 140 g ai/ha, 14 days after application, read-out: Visual Growth Reduction (%) 14 Days After Application, SORVU

First: COC(=O)c1nc(-c2ccc(C#N)cc2Cl)c(F)cc1Cl [F186, Methyl 3-chloro-6-(2-chloro-4-cyanophenyl)-5-fluoropicolinate]
Second: COC(=O)c1nc(-c2ccc(C(F)(F)F)c([S+](C)[O-])c2Cl)ccc1Cl (stereo not drawn) [F119, methyl 3-chloro-6-(2-chloro-3-(methylsulfinyl)-4-(trifluoromethyl)phenyl)picolinate]
The pest or weed control at 140 g/ha of the first is higher: 85 to 94% for the first, 0 to 29% for the second.

Same assay, conditions: post-emergence, 336 h, STEME: common chickweed (Stellaria media), 140 g ai/ha, 14 days after application, read-out: Visual Growth Reduction (%) 14 Days After Application, STEME

`COC(=O)c1nc(-c2ccc(C#N)cc2Cl)c(F)cc1Cl` [F186, Methyl 3-chloro-6-(2-chloro-4-cyanophenyl)-5-fluoropicolinate] and `COC(=O)c1nc(-c2ccc(C(F)(F)F)c([S+](C)[O-])c2Cl)ccc1Cl` (stereo not drawn) [F119, methyl 3-chloro-6-(2-chloro-3-(methylsulfinyl)-4-(trifluoromethyl)phenyl)picolinate] fall in the same range of pest or weed control at 140 g/ha: 0 to 29% for the first, 0 to 29% for the second.

Same assay, conditions: post-emergence, 336 h, TRZAS: wheat, spring (Triticum aestivum), 140 g ai/ha, 14 days after application, read-out: Visual Growth Reduction (%) 14 Days After Application, TRZAS

Compared with `COC(=O)c1nc(-c2ccc(C#N)cc2Cl)c(F)cc1Cl` [F186, Methyl 3-chloro-6-(2-chloro-4-cyanophenyl)-5-fluoropicolinate], `COC(=O)c1nc(-c2ccc(C(F)(F)F)c([S+](C)[O-])c2Cl)ccc1Cl` (stereo not drawn) [F119, methyl 3-chloro-6-(2-chloro-3-(methylsulfinyl)-4-(trifluoromethyl)phenyl)picolinate] is lower in pest or weed control at 140 g/ha: 30 to 44% for the first, 0 to 29% for the second.
